In BindingDB's records for doi:10.7270/Q2F769WQ (University of Pittsburgh, 2007):

target: T1, Dual specificity protein phosphatase 1 (Homo sapiens, UniProt P28562); assay: MKP-1 phosphatase inhibitor potency, dose response, biochemical, in vitro, confirmation (AID 551); conditions: pH 7; 22 °C
T1 sequence (P28562 whole entry): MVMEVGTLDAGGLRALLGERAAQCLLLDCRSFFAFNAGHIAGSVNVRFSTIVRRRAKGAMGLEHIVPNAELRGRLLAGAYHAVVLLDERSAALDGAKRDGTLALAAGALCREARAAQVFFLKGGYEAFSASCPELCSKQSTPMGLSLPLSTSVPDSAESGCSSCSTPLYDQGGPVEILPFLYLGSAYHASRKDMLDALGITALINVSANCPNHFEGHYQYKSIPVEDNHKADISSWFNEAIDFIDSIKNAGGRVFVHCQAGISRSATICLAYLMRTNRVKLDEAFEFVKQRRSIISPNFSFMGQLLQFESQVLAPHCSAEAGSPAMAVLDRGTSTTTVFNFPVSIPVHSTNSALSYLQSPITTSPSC

SMILES	IC50
CCCCOc1ccccc1P(=O)(O)CP(=O)(c1ccccc1)c1ccccc1 [(2-butoxyphenyl)-(diphenylphosphorylmethyl)phosphinic acid]	> 50 µM
O=C(c1ccc(-c2ccccc2)cc1)N1CCN(Cc2ccccn2)CC1 [(4-phenylphenyl)-[4-(2-pyridinylmethyl)-1-piperazinyl]methanone]	> 50 µM
O=C(c1cccs1)c1no[n+]([O-])c1C(=O)c1cccs1 [(5-oxidanidyl-4-thiophen-2-ylcarbonyl-1,2,5-oxadiazol-5-ium-3-yl)-thiophen-2-yl-methanone]	3.49 µM
Cc1cc2n(n1)SC(Nc1ccccc1)N2 (stereo not given) [(6-methyl-2,5-dihydropyrazolo[1,5-b][1,2,4]thiadiazol-2-yl)-phenyl-amine]	> 50 µM
Nc1c(N2CCCC2)cc(Cl)c2nonc12 [(7-chloro-5-pyrrolidino-benzofurazan-4-yl)amine]	> 50 µM
[O-]/[N+](=C/c1ccc(F)cc1)c1ccccc1 [(E)-(4-fluorobenzylidene)(phenyl)azane oxide]	> 50 µM
CC1=C(/C=C/C(C)=C/C=C/C(C)=C/C(=O)O)C(C)(C)CCC1 [ALL-TRANS-RETINOIC ACID]	27.1 µM
CCCCNC(=O)CSc1nnc(-c2ccco2)n1C [MLS000033335]	> 50 µM
CC(=O)[C@@H]1[C@@H]2C(=O)N(c3ccc(F)c(Cl)c3)C(=O)[C@@H]2C2c3ccccc3C=CN21 (stereo not given in full) [MLS000040594]	> 50 µM
COCCCn1c(N)c(C(=O)NCCC(C)C)c2nc3ccccc3nc21 [MLS000041744]	26.2 µM
COC(=O)N(c1ccc(OC)cc1)P1(=S)OCCC(C)O1 (stereo not given) [MLS000043492]	> 50 µM
O=C(NC1CC1)c1c[nH]c2ccc(S(=O)(=O)Nc3cccc(C(F)(F)F)c3)cc2c1=O [MLS000046685]	> 50 µM
CCn1c(SCC(=O)Nc2ccc3c(c2)c2ccccc2n3CC)nnc1-c1ccco1 [MLS000050867]	11.4 µM
CC(NC(=O)c1ccc2c(c1)OCO2)C1CCCO1 (stereo not given) [MLS000065753]	> 50 µM
O=C1C=Cc2ccccc2/C1=C/NC12CN3CCN(CN(C3)C1)C2 [MLS000071484]	> 50 µM
O=C1C(=C2C(=O)c3ccccc3C2=O)Nc2ccccc21 [MLS000071738]	> 50 µM
Cc1ccc(NC(=O)CSc2nnc(-c3ccc(S(=O)(=O)N4CCCC4)cc3)o2)cc1C [MLS000071775]	> 50 µM
COc1ccc(-n2nnnc2SCC(=O)Nc2ccc3c(c2)OCCO3)c(OC)c1 [MLS000071837]	> 50 µM
COc1ccc(-n2c(NC(=O)c3ccco3)c(C#N)c3nc4ccccc4nc32)cc1 [MLS000079925]	15.3 µM
COc1ccc(Cn2c(C)nc3c(c2=O)c2nc4ccccc4nc2n3Cc2ccco2)cc1 [MLS000079944]	17 µM
Cc1ccc(-c2csc(NC(=O)c3ccno3)n2)cc1 [MLS000081820]	39 µM
CC(C)Sc1nc2sc3c(c2c2nnc(SCC(=O)NCc4ccco4)n12)CCCC3 [MLS000082957]	10.4 µM
Nc1nc2c(s1)CCc1c-2cnn1-c1ccccc1 [MLS000085948]	> 50 µM
Cc1cc(NC(=O)c2ccc(S(=O)(=O)N3CCCC3)cc2)nc2c1c(=O)oc1ccccc12 [MLS000091355]	38.2 µM
O=C(CSc1nc2c(cnn2-c2ccccc2)c(=O)[nH]1)c1ccc(Cl)cc1 [MLS000091816]	> 50 µM

SMILES	IC50
Cn1c(=O)c2cc(S(=O)(=O)NCCC(=O)NCCC3=CCCCC3)ccc2n(C)c1=O [MLS000092640]	> 50 µM
COc1ccc(OC)c(NC(=O)CSc2nnc(Cc3cccn3C)n2CCc2ccccc2)c1 [MLS000092931]	> 50 µM
Cn1c(=O)oc2cc(S(=O)(=O)NCCC(=O)NC3CCCC3)ccc21 [MLS000093068]	> 50 µM
FC(F)(F)c1ccc(N2CCOCC2)c(Nc2nc3ccccc3n3cnnc23)c1 [MLS000093276]	22.7 µM
COC(=O)c1ccccc1NC(=O)CN1C(=O)C2CCCN2c2ncc(Cl)cc21 (stereo not given) [MLS000094302]	35.9 µM
CC1CCN(S(=O)(=O)c2ccc3c(c2)c(=O)c(C(=O)NC2CCCC2)cn3C)CC1 [MLS000095109]	> 50 µM
CCc1ccc(NC(=O)CSc2nc3ccccc3c(=O)n2CCN2CCOCC2)cc1 [MLS000095236]	45.8 µM
Cc1nn(Cc2ccccc2)c(C)c1NC(=O)CSc1nc2sc3c(c2c(=O)n1C)CCC3 [MLS000096728]	> 50 µM
Cc1nn2c(-c3cccc(NC(=O)c4ccco4)c3)nnc2c2ccccc12 [MLS000097401]	> 50 µM
N#CC(C(=O)CSc1nnc(Cc2cccs2)n1C1CCCCC1)c1nc2ccccc2[nH]1 (stereo not given) [MLS000098387]	> 50 µM
Cc1c(N=c2c(=O)c3ccccc3c2=O)c(=O)n(-c2ccccc2)n1C [MLS000105950]	8.85 µM
CCOc1ccc2noc3c2c1C(=O)c1ccccc1-3 [MLS000106837]	49.2 µM
COc1ccc2noc3c2c1C(=O)c1ccccc1-3 [MLS000106874]	16.1 µM
[O-]/[N+](=C\c1ccncc1)c1ccc(Br)cc1 [MLS000109219]	> 50 µM
CCOC(=O)c1ccc2c(c1)C1C=CCC1C(C(=O)O)N2 (stereo not given) [MLS-0025126.0001]	15.8 µM
O=C(NC1(O)C(=O)c2ccccc2C1=O)c1ccccc1 [N-(2-hydroxy-1,3-dioxo-2-indenyl)benzamide]	14.2 µM
O=C(Nc1cccc(-c2nc3ccccc3[nH]2)c1)c1cccc(NC(=O)c2ccco2)c1 [N-[3-[[3-(1H-benzimidazol-2-yl)phenyl]carbamoyl]phenyl]furan-2-carboxamide]	> 50 µM
Nc1ccc2ncccc2c1N [SMR000015817]	> 50 µM
COc1ccc(-n2c(SCC(=O)N3CCCC3)nc3c([nH]c4ccccc43)c2=O)cc1 [SMR000018494]	> 50 µM
CCCCCC1CCC(C(=O)O)CC1 (stereo not given) [SMR000019012]	> 50 µM
O=C(OC1CCCCC1)c1ccc2c(c1)C1C=CCC1C(C(=O)O)N2 (stereo not given) [SMR000019385]	7.66 µM
CC12CC(NC(=O)N1c1ccc(C(=O)N3CCN(c4ccc(F)cc4)CC3)cc1)c1ccccc1O2 (stereo not given) [SMR000026617]	> 50 µM
CCCCn1c(NC(=O)c2ccccc2)c(C#N)c2nc3ccccc3nc21 [SMR000060333]	23.5 µM
N#Cc1c(N2CCCC2)nc(N)c2c(N)nc(N3CCCC3)cc12 [SMR000061605]	0.136 µM
CCOC(=O)c1ccc(Nc2c3[nH]cccc-3c(=O)n2Cc2ccc(F)cc2)cc1 [ethyl 4-[[6-[(4-fluorophenyl)methyl]-5-oxo-7H-pyrrolo[3,4-b]pyridin-7-yl]amino]benzoate]	> 50 µM
